Assay results as given in patent US20210315893A1 (Galapagos NV, priority 2017, published 2021).

Assays:
[1] = molecular target: T1, human GPCR sphingosine 1-phosphate receptor 1 (Homo sapiens, UniProt P21453); assay: S1PR1 selectivity Ca2+ flux assay (antagonist readout); format: cell-based; details: antagonist readout, CHO cells overexpressing human S1PR1 and Gq, S1P at EC80 (6 nM); read-out: S1P1 EC50 (nM), S1P1 antagonist EC50
T1 construct: host or cells: CHO
Method: 50 μL of Chinese hamster ovary (CHO) cells stably overexpressing human S1PR1 or S1PR5 are seeded in 384 well sterile microplates (7,500 cells/well or 10,000 cells/well respectively) and are incubated overnight at 37° C. under 5% CO2. Cells are subsequently washed twice with 25 μL/well of starvation medium (F-12 Ham's medium containing 0.1% fatty acid free bovine serum albumin (FAF BSA)). After one h starvation at 37° C., 5% CO2, cells are loaded with 25 μL of Fluo 8 dye diluted in Hank's balanced salt solution (HBSS) with 20 mM Hepes complemented with 5 mM of probenecid following the recommendations of the manufacturer (one h at 37° C., 5% CO2). Dilution series of compounds are prepared in HBSS buffer with 20 mM Hepes and 0.1% BSA (FAF). 10 μL of diluted compound is added to the cells using the FDSS/pCELL and intracellular calcium changes are measured immediately by recording fluorescence during 3 min (agonist readout). The ratio of maximal signal over background before compound injection is used to determine compound response.
After an incubation of 15 min at 37° C., following the agonist readout, the plates are transferred to the FDSS/pCELL reader. […] The ratio of maximal signal over background before S1P injection was used to determine the inhibitory effect ofthe compound.
Raw data obtained in each experiment (ratio of maximal signal over background for calcium mobilization assays) were normalized in percentage of activation (agonist mode) or inhibition (antagonist mode) using positive and negative experiment controls. Each individual plate quality was assessed by evaluation of Z′ factor calculated with raw data using the following equation
Y=bottom+(top−bottom)/(1+(10^(Log IC50−X)*Hillslope)) where X is the logarithm of the concentration of the compound

[2] = test system: HFL-1 cells; assay: IL8 assay in the presence of Human Serum Albumin; details: HFL1, read-out: HSA IL8 EC50
[3] = test system: HFL-1 cells; assay: IL-8 production assay (S1P induced IL-8); format: cell-based; details: Homo sapiens, HFL1; S1P (1 μM) induced IL-8 in HFL-1 cells, starvation medium without HSA; read-out: IL8 EC50
In short: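 HFL-1 fibroblasts in low-serum medium were pretreated 1 h with a 10-point 1/3 series of compound starting at 30 μM (0.3% DMSO).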

[4] = molecular target: T2, S1PR2 (Homo sapiens, UniProt O95136); assay: S1PR2 binding assay (competition with radioactively labeled S1P, SpA); details: membranes from stable cell line over expressing S1PR2, SpA beads; read-out: S1P2 EC50 (nM), S1PR2 binding EC50
T2 construct: expressed in transfected cells
T2 sequence (O95136 whole entry): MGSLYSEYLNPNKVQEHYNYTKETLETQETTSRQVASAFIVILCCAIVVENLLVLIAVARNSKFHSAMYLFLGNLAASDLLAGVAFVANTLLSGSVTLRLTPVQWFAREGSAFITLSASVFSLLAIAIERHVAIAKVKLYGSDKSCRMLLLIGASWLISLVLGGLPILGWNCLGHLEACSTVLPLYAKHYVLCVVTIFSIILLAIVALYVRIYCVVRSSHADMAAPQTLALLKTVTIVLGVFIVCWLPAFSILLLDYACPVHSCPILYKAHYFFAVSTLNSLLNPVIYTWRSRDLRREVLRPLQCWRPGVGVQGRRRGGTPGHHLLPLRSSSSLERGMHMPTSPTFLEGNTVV
In short: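 Scintillation proximity read-out after 2 h room-temperature incubation of compound, [3H]S1P and S1PR2-overexpressing cell membranes on WGA-coated beads. Buffer: 20 mM Tris pH 7.5, 100 mM NaCl, 10 mM MgCl2, 1 mM Na3VO4, 0.4% fatty-acid-free BSA; plates counted immediately after centrifugation.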

[5] = molecular target: T3, human GPCR sphingosine 1-phosphate receptor 2 (Homo sapiens, UniProt O95136); assay: S1PR2 antagonist Ca2+ flux assay; format: cell-based; details: antagonist mode, CHO-S1PR2 cells, S1P at EC80, Ca2+ fluorescence; read-out: S1P2 EC50 (nM), S1P2 antagonist EC50
T3 construct: host or cells: CHO
T3 sequence (O95136 whole entry): as above
In short: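 Antagonist mode: 15 min after compound addition, S1P (EC80) stimulates Fluo8-loaded, 1 h-starved CHO-S1PR2 cells, Ca2+ read over 3 min; a prior 3-min read checks compound agonism. EC50 from peak/baseline fluorescence ratio, normalised versus vehicle and S1P EC50 (antagonist) or EC100 (agonist).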

T1 sequence (P21453 whole entry): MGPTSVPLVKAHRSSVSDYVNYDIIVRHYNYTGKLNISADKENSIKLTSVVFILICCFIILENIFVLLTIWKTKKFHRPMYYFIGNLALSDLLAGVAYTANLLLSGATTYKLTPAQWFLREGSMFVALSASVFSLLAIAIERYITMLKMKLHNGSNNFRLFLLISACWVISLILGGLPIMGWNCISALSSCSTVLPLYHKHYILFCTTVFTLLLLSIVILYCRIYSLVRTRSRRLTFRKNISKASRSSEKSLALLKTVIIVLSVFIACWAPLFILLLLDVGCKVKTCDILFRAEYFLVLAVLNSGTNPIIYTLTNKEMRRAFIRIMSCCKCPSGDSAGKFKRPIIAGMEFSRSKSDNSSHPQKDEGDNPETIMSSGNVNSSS

Row | Compound | EC50 [1] | EC50 [2] | EC50 [3] | EC50 [4] | EC50 [5]
1 | CN1CCC(n2nc(Cc3nc4cc(OCC(F)F)c(C#N)cc4[nH]3)c3ccccc3c2=O)C1 (stereo not drawn) [Compound 72, 6-(2,2-difluoroethoxy)-2-[[3-(1-methylpyrrolidin-3-yl)-4-oxo-phthalazin-1-yl]methyl]-3H-benzimidazole-5-carbonitrile] | ≥ 19800 nM | 1950 nM | 5180 nM | 3090 nM | 
2 | O=C(O)C1CCC1n1nc(Cn2cc3cc(OCC4CC4)c(Cl)cc3n2)c2ccccc2c1=O (stereo not drawn) [Compound 91, 2-[4-[[6-chloro-5-(cyclopropylmethoxy)indazol-2-yl]methyl]-1-oxo-phthalazin-2-yl]cyclobutanecarboxylic acid] | ≥ 19800 nM | 5710 nM | 60.7 nM |  | 22.2 nM
3 | O=C(O)Cn1nc(Cc2nc3cc(Cl)c(OC(F)(F)F)cc3[nH]2)c2c(c1=O)CCCC2 [Compound 113, 2-[4-[[5-chloro-6-(trifluoromethoxy)-1H-benzimidazol-2-yl]methyl]-1-oxo-5,6,7,8-tetrahydrophthalazin-2-yl]acetic acid] | ≥ 19900 nM | 917 nM | 418 nM | 154 nM | 23.7 nM
4 | O=C(Cn1nc(Cc2nc3cc(Cl)c(OC(F)(F)F)cc3[nH]2)c2c(c1=O)CCCC2)N1CCOCC1 [Compound 145, 4-[[5-chloro-6-(trifluoromethoxy)-1H-benzimidazol-2-yl]methyl]-2-(2-morpholino-2-oxo-ethyl)-5,6,7,8-tetrahydrophthalazin-1-one] | ≥ 19900 nM | 330 nM | 89.3 nM | 80.2 nM | 42.6 nM
5 | CC1(O)CCN(C(=O)Cn2nc(Cc3cn4cc(OCC5CC5)c(C#N)cc4n3)c3ccccc3c2=O)C1 (stereo not drawn) [Compound 210, 6-(cyclopropylmethoxy)-2-[[3-[2-(3-hydroxy-3-methyl-pyrrolidin-1-yl)-2-oxo-ethyl]-4-oxo-phthalazin-1-yl]methyl)imidazo[1,2-a]pyridine-7-carbonitrile] |  | 188 nM | 356 nM | 233 nM | 102 nM
6 | N#Cc1cc2[nH]c(Cc3nn(CC(=O)N4CCC(C#N)CC4)c(=O)c4ccccc34)nc2cc1OCC(F)F [Compound 219, 2-[[3-[2-(4-cyano-1-piperidyl)-2-oxo-ethyl]-4-oxo-phthalazin-1-yl]methyl]-6-(2,2-difluoroethoxy)-3H-benzimidazole-5-carbonitrile] |  | 607 nM | 177 nM | 265 nM | 32.4 nM
7 | CN(CCS(C)(=O)=O)C(=O)Cn1nc(Cc2nc3cc(OCC(F)F)c(C#N)cc3[nH]2)c2ccccc2c1=O [Compound 220, 2-[4-[[6-cyano-5-(2,2-difluoroethoxy)-1H-benzimidazol-2-yl)methyl]-1-oxo-phthalazin-2-yl]-N-methyl-N-(2-methylsulfonylethyl)acetamide] |  | 325 nM | 102 nM | 320 nM | 52.6 nM
8 | CS(=O)(=O)C1CCN(C(=O)Cn2nc(Cc3nc4cc(OCC(F)F)c(C#N)cc4[nH]3)c3ccccc3c2=O)C1 (stereo not drawn) [Compound 221, 6-(2,2-difluoroethoxy)-2-[[3-[2-(3-methylsulfonylpyrrolidin-1-yl)-2-oxo-ethyl]-4-oxo-phthalazin-1-yl]methyl]-3H-benzimidazole-5-carbonitrile] |  | 387 nM | 127 nM | 365 nM | 45.8 nM
9 | N#Cc1cc2[nH]c(Cc3nn(CC(=O)N4CCC5(C4)CC5(F)F)c(=O)c4ccccc34)nc2cc1OCC(F)F (stereo not drawn) [Compound 235, 2-[[3-[2-(2,2-difluoro-5-azaspiro[2.4]heptan-5-yl)-2-oxo-ethyl]-4-oxo-phthalazin-1-yl]methyl]-6-(2,2-difluoroethoxy)-3H-benzimidazole-5-carbonitrile] |  | 159 nM | 49.2 nM | 117 nM | 18.2 nM
10 | O=c1c2ccccc2c(Cn2cc3cc(OCC4CC4)c(Cl)cc3n2)nn1C1CNC1 [compound 2, 2-(azetidin-3-yl)-4-[[6-chloro-5-(cyclopropyl-methoxy)indazol-2-yl]methyl]-phthalazin-1-one] |  | 166 nM | 38.8 nM | 75.7 nM | 81.6 nM
11 | O=C(O)Cc1nn(Cc2cc3cc(Cl)c(OCC4CC4)cc3[nH]2)c2ccccc2c1=O [compound 16, 2-[1-[[5-chloro-6-(cyclopropyl-methoxy)-1H-indol-2-yl]-methyl]-4-oxo-cinnolin-3-yl]-acetic acid] |  | 51.4 nM | 8.49 nM | 29.9 nM | 4.58 nM

Continued, values first:

Row | EC50 [1] | EC50 [2] | EC50 [3] | EC50 [4] | EC50 [5] | Compound
12 | ≥ 19900 nM | 1640 nM | 541 nM |  |  | O=C(O)Cn1nc(Cc2nc3cc(OC(F)(F)F)c(Cl)cc3[nH]2)c2ccccc2c1=O [Compound 112, 2-[4-[[6-chloro-5-(trifluoromethoxy)-1H-benzimidazol-2-yl]methyl]-1-oxo-phthalazin-2-yl]acetic acid]
13 | ≥ 19900 nM |  | 26 nM |  |  | COc1cc2nc(Cc3nn(CC(=O)O)c(=O)c4ccccc34)[nH]c2cc1Cl [Compound 136, 2-[4-[(6-chloro-5-methoxy-1H-benzimidazol-2-yl)methyl]-1-oxo-phthalazin-2-yl]acetic acid]
14 | ≥ 19900 nM | 3180 nM | 105 nM | 59.4 nM | 21 nM | CCOc1cc2cn(Cc3nn(CC(=O)O)c(=O)c4ccccc34)nc2cc1Br [Compound 137, 2-[4-[(6-bromo-5-ethoxy-indazol-2-yl)methyl]-1-oxo-phthalazin-2-yl]acetic acid]
15 | ≥ 19900 nM | 1110 nM | 114 nM | 29.8 nM | 13 nM | O=C(Cn1nc(Cc2nc3cc(OC(F)(F)F)c(Cl)cc3[nH]2)c2ccccc2c1=O)N[C@H]1CCC[C@H]1O [Compound 140, 2-[4-[[6-chloro-5-(trifluoromethoxy)-1H-benzimidazol-2-yl]methyl]-1-oxo-phthalazin-2-yl]-N-[(1S,2R)-2-hydroxycyclopentyl]acetamide]
16 | ≥ 19900 nM |  | 130 nM | 70.6 nM | 21.1 nM | O=C(Cn1nc(Cc2nc3cc(OC(F)(F)F)c(Cl)cc3[nH]2)c2ccccc2c1=O)NC1CCS(=O)(=O)CC1 [Compound 141, 2-[4-[[6-chloro-5-(trifluoromethoxy)-1H-benzimidazol-2-yl]methyl]-1-oxo-phthalazin-2-yl]-N-(1,1-dioxothian-4-yl)acetamide]
17 | ≥ 19900 nM | 952 nM | 191 nM | 103 nM | 30.1 nM | O=C(Cn1nc(Cc2nc3cc(OC(F)(F)F)c(Cl)cc3[nH]2)c2ccccc2c1=O)N1CCOCC1 [Compound 142, 4-[[6-chloro-5-(trifluoromethoxy)-1H-benzimidazol-2-yl]methyl]-2-(2-morpholino-2-oxo-ethyl)phthalazin-1-one]
18 |  | 562 nM | 28.8 nM | 210 nM | 16.8 nM | CC1(C)CCN(C(=O)Cn2nc(Cc3nc4cc(OCC(F)F)c(C#N)cc4[nH]3)c3ccccc3c2=O)C1 [Compound 233, 6-(2,2-difluoroethoxy)-2-[[3-[2-(3,3-dimethylpyrrolidin-1-yl)-2-oxo-ethyl]-4-oxo-phthalazin-1-yl]methyl]-3H-benzimidazole-5-carbonitrile]
19 |  | 10000 nM | 1450 nM | 4950 nM | 615 nM | CC(=O)N1CCCC1Cn1nc(Cc2nc3cc(Cl)c(OC(F)(F)F)cc3[nH]2)c2ccccc2c1=O (stereo not drawn) [compound 14, 2-[(1-acetylpyrrolidin-2-yl)-methyl]-4-[[5-chloro-6-(tri-fluoromethoxy)-1H-benzimidazol-2-yl]methyl]-phthalazin-1-one]
